Series [1] deals with human cancer cell lines established from tumors (lung, bladder, testis). Nature of the series: Co-application of cis-platin and DPH to cancer cell lines: DNA adducts by ICA. It is filed as cell-based. Particulars: cis-platin alone or in combination with DPH.
Series [2] relates to Pt-GG adducts in DNA. The series is described as follows: In vivo screening for cis-platin uptake inhibitors and DPH co-administration, ICA of Pt-GG adducts. Further details: species or system mice. The procedure: (§1) The sacrificed animals were immediately dissected. Kidneys and lungs were submerged in embedding medium (Tissue-Tek O.C.T. Compound) and frozen in liquid nitrogen. Cochleae were dissected and fixed by intralabyrinthine perfusion with Carnoy's solution (3 hours; for DNA adduct staining) or with formaldehyde (4 % in PBS; 1 hour; for OCT protein staining). Cochleae were decalcified in EDTA solution (10 % w/v in PBS) for 3 days and then placed in sucrose solutions (5 % in PBS for 12 hours and 15 % in PBS for 5 hours). After that samples were imbedded in Tissue-Tek medium, frozen and cryosections of 10 µm cut.
(§2) Frozen tissue sections of the inner ear or kidneys on ImmunoSelect slides were fixed in methanol at -20°C for at least 2 hours or overnight and then rehydrated for 10 minutes in PBS, at room temperature. To provide better antibody penetration in the tissue structures the samples underwent alkaline permeabilisation of cytoplasmic and nuclear membranes for 5 minutes at 0°C, followed by washing in PBS at room temperature for 5 minutes. The proteolytic cleavage of cytoplasmic and nuclear proteins was performed in two steps. At first, a pre-warmed pepsin solution (60 µg /ml for cell culture or 100 µg/ml for tissue sections in PBS/HCl) was applied onto the tissue sections and incubated for 10 minutes at 37°C in a humidified chamber. The incubation with pepsin was followed by washing in PBS for 10 minutes at room temperature. In a second step tissue sections were incubated with pre-warmed proteinase K solution (40 µg/ml for cell cultures or 50-100 µg /ml for tissue sections in proteinase K buffer) for 10 minutes at 37°C in a humidified chamber. Subsequently the sections were washed in 0.2 % glycine in PBS for 10 minutes at room temperature. Non-specific binding of the antibodies was inhibited by incubation with a blocking solution of 1 % casein in PBS for 30 minutes at room temperature. The samples were then incubated with a monoclonal antibody (R-C18, Liedert et al., 2006) specific for Pt-GG adducts in DNA (0.1 µg/ml in 0.1 % BSA/PBS) over night at 4°C in the humidified chamber. Subsequently, the slides were washed in 0.05 % Tween 20 in PBS for 5 minutes at room temperature and then in PBS for 5 minutes. The incubation with secondary Cy3-labeled rabbit anti-(rat Ig) antibodies, was performed (0.2 µg/ml in 0.1 % BSA/PBS) for 60 minutes at 37°C in the humidified chamber, followed by washing in 0.05 % Tween 20 in PBS for 5 minutes at room temperature and then in PBS for 5 minutes. The nuclear DNA was counterstained with DAPI (1 µg/ml in PBS) for 30 minutes at room temperature. The slides were then washed in PBS. Finally, the samples were embedded with a densification compound "[…]". The quantification of immuno- and DNA-fluorescence was performed by means of a microscope-coupled digital image analysis system ACAS 6.0 Cytometry Analysis System. Adduct levels in the nuclear DNA of individual cells were calculated by normalizing antibody-derived fluorescence signals to the corresponding DNA content of the same nucleus, and were expressed as arbitrary fluorescence units (AFUs). Data were assigned to specific cell types as determined by histochemistry.
The mice were separated into two groups for pretreatment with low or high doses of the test compounds. […] The low dose group received half the dose of the high dose group (50, 50, 30 or 10 mg/kg, respectively). […] Cochleae and kidneys were dissected for immunostaining and ICA analyses of Pt-GG adduct levels in specific cell types (Figure 8). In tissue sections from mice pretreated with quinine or butylscopolamine no inhibition of DNA platination was observed, independent of the dosing, in either of the three target cell types (renal tubulus epithelium cells (Figure 8 A), cochlear marginal cells (Figure 8B) and outer hair cells (Figure 8 C)). […]

The format of series [3] is in vivo, mice.
Description: Since the protective effect of DPH for the cochlea may be mediated by blocking an ion transporter being relevant for the physiological function of the target cells, an additional experiment was done to verify whether a treatment with DPH alone alters the hearing capability of the mice. For this, five animals measured for their basal auditory sensitivity with the BAER test were treated 24 h later with a single dose of DPH (57 mg/kg), and were re-examined one hour later again by the BAER test.
Series [4] has as its system human cancer cell lines established from tumors (lung, bladder, testis). Nature of the series: Co-application of cis-platin and DPH to cancer cell lines: apoptosis by Annexin V staining and FACS analysis. It counts as cell-based. The conditions noted are these: cis-platin alone or in combination with DPH. On the technique in general: A flow cytometer gives signals particle by particle.

Series [5] concerns Pt-GG adducts in DNA. The series is described as follows: Immunocytological assay (ICA) of Pt-GG adducts in kidney and cochlea cells after cis-platin treatment. It counts as in vivo, mice. The procedure: as §1, §2
24 hours later, the inner ears and kidneys were dissected, kidneys were frozen immediately and cochleae were fixed and decalcified. Cryosections (10 µm) prepared from the tissues were placed onto specific adhesion slides. Slides were then immunostained for the visualization of platinum-guanine-guanine (Pt-GG) intrastrand adducts in the nuclei of individual cells by using the adduct-specific monoclonal antibody R-C18 in an immunocytological assay (ICA) (Liedert et al., 2006). The tissue sections were then stained with a secondary Cy3-labeled goat-anti-rat antibody (Cy3), counterstained with DAPI for nuclear DNA, and analyzed in the fluorescence microscope (Figure 1). Serial sections from the same tissues were stained for morphological orientation with hematoxyline and eosin (H&E). […]

Series [6] has as its system Pt-GG adducts in DNA. The series is described as follows: ICA of Pt-GG adducts in cochlear cells of XPA-/- versus wild type mice. It is filed as in vivo. The method, then: Frozen tissue sections of the inner ear or kidneys on ImmunoSelect slides were fixed in methanol at -20°C for at least 2 hours or overnight and then rehydrated for 10 minutes in PBS, at room temperature. To provide better antibody penetration in the tissue structures the samples underwent alkaline permeabilisation of cytoplasmic and nuclear membranes for 5 minutes at 0°C, followed by washing in PBS at room temperature for 5 minutes. The proteolytic cleavage of cytoplasmic and nuclear proteins was performed in two steps. At first, a pre-warmed pepsin solution (60 µg /ml for cell culture or 100 µg/ml for tissue sections in PBS/HCl) was applied onto the tissue sections and incubated for 10 minutes at 37°C in a humidified chamber. The incubation with pepsin was followed by washing in PBS for 10 minutes at room temperature. […] The quantification of immuno- and DNA-fluorescence was performed by means of a microscope-coupled digital image analysis system ACAS 6.0 Cytometry Analysis System. Adduct levels in the nuclear DNA of individual cells were calculated by normalizing antibody-derived fluorescence signals to the corresponding DNA content of the same nucleus, and were expressed as arbitrary fluorescence units (AFUs). Data were assigned to specific cell types as determined by histochemistry. […]

Series [7] relates to Pt-GG adducts in DNA. The series is described as follows: Immunocytological assay (ICA) of Pt-GG adducts in kidney and cochlea cells after cis-platin treatment. It is filed as in vivo, mice. The conditions noted are these: cis-platin 12.5 mg/kg single dose; measured 2, 16, 48, 72 h.
The mark [8] stands for this setting: DPH 0 to 57 mg/kg i.p. 30 minutes prior to cis-platin 10 mg/kg (Figure 9).
Setting [9] is: DPH 57 mg/kg 30 minutes before cis-platin 12.5 mg/kg, 2, 16, 48, 72 hours.
Where [10] appears, read: high dose of 60 mg/kg i.p. 1 h before cis-platin 10 mg/kg, 24 h.
Setting [11] is: cis-platin plus DPH, repetitive treatment.
[12] abbreviates: cis-platin 10 mg/kg i.p., cochlea, 24 h (Figure 3 B).
[13] abbreviates: cis-platin 10 mg/kg i.p., kidney.
Setting [14] is: cis-platin 10 mg/kg i.p., kidney, 24 h (Figure 3 A).

The text below walks through data of patent EP2601945A1 (Thomale, Jürgen, priority 2011, dated 2013).

SMILES strings stand for the structures. “Also recorded” adds a separate entry of the source.

For `CN(C)CCOC(c1ccccc1)c1ccccc1` [DPH, diphenhydramine], the “effect on the formation of DNA adducts (ICA)” value in series [1] is “no inhibitory effect”. In the series on Pt-GG adducts in DNA [2] (setting [8]), the “adduct accumulation in proximal tubule cells and marginal cells” value is “dose-dependent inhibition”; the “adduct levels in distal tubule cells and basal and intermediate cells of the stria vascularis” value was “No significant alterations”. Moreover, in the series on Pt-GG adducts in DNA [2] (setting [9]), the “DNA platination in marginal and outer hair cells versus cis-platin alone, all time points” value is recorded as “drastically decreased”; the “capability to repair the DNA damage” value is “no obvious differences”. For the same compound, in the series with Pt-GG adducts in DNA [2] (DPH along with cis-platin (description)), the “inhibition of the formation of Pt-adducts in outer hair cells and marginal cells” value is “about 70%”. For the same compound, in the series with Pt-GG adducts in DNA [2] (cis-platin 15 mg/kg with DPH 50 mg/kg, 24 h (Figure 9 C)), the “formation of Pt-adducts in dorsal root ganglion (DRG) neurons” value is “inhibited; also recorded: significantly reduced”. In the series on Pt-GG adducts in DNA [2] (setting [10]), the “shielding from DNA damage, cochlear marginal cells” value amounted to 70%; the “shielding from DNA damage, outer hair cells” value is on record as “about 50%”; the “shielding from DNA damage, proximal tubule cells” value is reported as 75%. Further, the “adduct levels in other cell types of the inner ear” value in the series on Pt-GG adducts in DNA [2] (repetitive cis-platin 5 mg/kg every second day plus DPH 57 mg/kg) is “remained unchanged”. Besides, the “adducts in target cells of kidney and inner ear versus cis-platin alone group” value in the series with Pt-GG adducts in DNA [2] (repetitive cis-platin 5 mg/kg every second day plus DPH 57 mg/kg (Figure 12)) is “by far less adducts”. Further, the “side effects of prolonged treatment” value in series [3] (DPH alone, up to eight applications) was “no obvious side effects”. In addition, in series [3] (setting [11]), the “general health status versus cis-platin alone group” value is given as “better” and the “weight loss versus cis-platin alone group” value is listed as “less severe”. Moreover, the “effect on the induction of apoptosis” value in series [4] was “no inhibitory effect”.

Take `N.N.[Cl][Pt][Cl]` [cis-platin, cis-diaminedichloro-platinum(II)]: in the series on Pt-GG adducts in DNA [5] (cis-platin 10 mg/kg i.p.), the “levels of Pt-GG adducts, OHC vs. adjacent cells in the organ of Corti” value is listed as 11 fold and the “levels of Pt-GG adducts, marginal cells compared to other cell types in the stria vascularis” value came out at 5 fold. Further, in the series with Pt-GG adducts in DNA [5] (setting [12]), the “levels of Pt-GG adducts, adjacent cells in the organ of Corti” value was determined as 1.19 AFUs and the “levels of Pt-GG adducts, other cell types in the stria vascularis” value is on record as 2.08 AFUs. Further, in the series on Pt-GG adducts in DNA [5] (cis-platin 10 mg/kg i.p., cochlea, organ of Corti, 24 h (Figure 3 B)), the “levels of Pt-GG adducts, OHC (outer hair cells)” value is listed as 13.26 AFUs. Further, in the series with Pt-GG adducts in DNA [5] (cis-platin 10 mg/kg i.p., cochlea, stria vascularis, 24 h (Figure 3 B)), the “levels of Pt-GG adducts, marginal cells” value is 9,85 AFUs. In the series on Pt-GG adducts in DNA [5] (setting [13]), the “platination level, distal tubular cells versus glomerulus cells” value is “twice as high” and the “platination level, proximal tubular cells versus distal tubular cells” value is given as 7 fold. In the series on Pt-GG adducts in DNA [5] (setting [14]), the “platination level (Pt-GG adducts), distal tubular cells” value is 2.61 AFUs; the “platination level (Pt-GG adducts), glomerulus cells” value was found to be 0.97 AFUs; the “platination level (Pt-GG adducts), proximal tubular cells” value came to 18.97 AFUs. In addition, the “adduct levels of non-marginal cells of the stria vascularis, lower than marginal cells” value in the series with Pt-GG adducts in DNA [5] (cis-platin 10 mg/kg single dose, 24 h, turns of the cochlea (Figure 4)) came out at 10 fold. Moreover, the “adduct levels in inner ear cis-platin target cells, XPA -/- mice versus wild type littermates” value with Pt-GG adducts in DNA [6] (cis-platin cumulated dose 3.5 mg/kg (Figure 7 B legend)) is “more than 3 times”. For the same compound, in the series with Pt-GG adducts in DNA [6] (cis-platin cumulative dose 3.5 mg/kg (Figure 7 B)), the “levels of DNA damage in marginal cells, XPA-/- mice compared to wild type littermates” value is listed as “about 2.7 fold”. Moreover, in the series on Pt-GG adducts in DNA [7], the “time at which Pt-GG levels peaked, OHCs” value worked out at 16 h and the “time at which Pt-GG levels peaked, marginal cells” value was found to be 48 h.
